Holding throughout (assay type): in vivo
The test system of assay [1] is Mycosphaerella graminicola; Anamorph: Septoria tritici. Description: Leaf blotch of wheat (SEPTTR) disease control on wheat seedlings. As to conditions: Zymoseptoria tritici, Wheat Leaf Blotch, low volume application, 121.5 g/H. In a few lines: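 Protective or curative format: Septoria tritici inoculation either preceded or followed fungicide application to first-leaf Yuma wheat. Severity scored 0–100%; control expressed versus untreated.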

For a further assay, the system named is Uncinula necator. Briefly: Grape powdery mildew (UNCINE) disease control. As to conditions: Erysiphe necator, 24 h, High volume application, 1 Day Protectant, read-out: UNCINE 1 DP disease control. In a few lines: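 About one-month-old Carignane grape seedlings were sprayed to run-off with compound in acetone diluted with nine volumes of water containing 110 ppm Triton X-100, then air-dried. Plants were inoculated 24 hr after treatment by shaking spores from infected leaves. They were kept in a greenhouse at 20° C until disease developed, and sprayed leaves were then scored.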

The subject of another assay is Erysiphe cichoracearum. Briefly: Powdery mildew of cucumber (ERYSCI) disease control. As to conditions: Golovinomyces cichoracearum, 24 h, 1 Day Protectant, high volume, read-out: Disease Control ERYSCI 1 DP.
The subject of another assay is Cercospora beticola. Briefly: Leaf spot of sugar beets (CERCBE) disease control. The settings on record: 24 h, 1 Day Protectant, high volume, read-out: Disease Control CERCBE 1 DP. Put shortly:
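Sugar beet plants (variety HH88) sprayed to run-off with compound in acetone diluted with nine volumes of water containing 110 ppm Triton X-100, then inoculated with a spore suspension 24 hr later. Kept in a dew chamber at 22° C for 48 hr, then in a greenhouse at 24° C under a hood until symptoms fully developed, when disease on sprayed leaves was scored.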

A further assay deals with Phakopsora pachyrhizi. Description: Asian soybean rust (PHAKPA) disease control. The settings on record: topical, high volume. In a few lines: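 Compounds in acetone diluted with nine volumes water containing 0.011% Tween 20, sprayed to run-off on two-week-old Williams 82 soybean seedlings, inoculated 3 days before or 1 day after treatment. Plants held 24 h in dark dew room at 22 °C, 100% RH, then at 23 °C; disease severity scored on sprayed leaves.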

For assay [2], the system named is Blumeria graminis f. sp. hordei; Synonym: Erysiphe graminis f. sp. hordei. Description: Barley powdery mildew (ERYSGH) disease control. The settings on record: 24 h, 1 Day Protectant, high volume, read-out: Disease Control ERYSGH 1 DP.
The test system of assay [3] is Magnaporthe grisea; Anamorph: Pyricularia oryzae. Briefly: whole plant or invertebrate. As to conditions: 24 h, read-out: PYRIOR 1 DP disease control.
[4] abbreviates: 24 h, 1 Day Protectant, read-out: Disease Control SEPTTR 1 DP 121.5 g/H.
Setting [5] is: 72 h, 3 Day Curative, read-out: Disease Control SEPTTR 3 DC 121.5 g/H.
[6] abbreviates: 24 h, 1 Day Protectant, read-out: Disease Control PHAKPA 1DP.
[7] abbreviates: 72 h, 3 Day Curative, read-out: Disease Control PHAKPA 3DC.

Where two headings read alike, the source gives them in different places. Some results are limits rather than exact numbers.

Take `COc1ccnc(C(=O)N[C@H]2CCC[C@H](OCC(C)C)[C@@H](OC)[C@H](C)OC2=O)c1OCOC(C)=O` [F251]: the pest or weed control at 121.5 g/ha in assay [1] (setting [4]) and in assay [1] (setting [5]) was under 0% each time. Also, the pest or weed control at 100 ppm was 0 to 80% in the assay on Uncinula necator; under 0% with Erysiphe cichoracearum; 0 to 80% in the assay on Cercospora beticola; under 0% in assay [2]; 80 to 100% in assay [3]. The values for the pest or weed control at 25 ppm with Phakopsora pachyrhizi (setting [6]) and in the assay on Phakopsora pachyrhizi (setting [7]) were 80 to 100% and 0 to 80%, respectively.
For the compound `COc1ccnc(C(=O)N[C@H]2CCC[C@H](Oc3ccccc3)[C@@H](OC)[C@H](C)OC2=O)c1OCOC(C)=O` [F252], the pest or weed control at 121.5 g/ha in assay [1] (setting [4]) and in assay [1] (setting [5]) was 0 to 80% in each case. The pest or weed control at 100 ppm in the assay with Uncinula necator is 0 to 80%; with Erysiphe cichoracearum, under 0%; in the assay with Cercospora beticola, 0 to 80%; in assay [2] it was 0 to 80%; in assay [3] it was 80 to 100%. For the same compound, the pest or weed control at 25 ppm lay within 80 to 100% in the assay on Phakopsora pachyrhizi (setting [6]) and 0 to 80% in the assay with Phakopsora pachyrhizi (setting [7]).
For `C=C(C)CO[C@H]1CCC[C@H](NC(=O)c2nccc(OC)c2OCOC(=O)C(C)C)C(=O)O[C@@H](C)[C@@H]1OC` [F253], the pest or weed control at 121.5 g/ha in assay [1] (setting [4]) and in assay [1] (setting [5]) was under 0% in each case. The pest or weed control at 100 ppm in the assay on Uncinula necator was 0 to 80%; with Erysiphe cichoracearum, under 0%; in the assay with Cercospora beticola, under 0%; in assay [2], 0 to 80%; in assay [3] it was 80 to 100%. Besides, the pest or weed control at 25 ppm in the assay on Phakopsora pachyrhizi (setting [6]) is 0 to 80%; in the assay with Phakopsora pachyrhizi (setting [7]) it was under 0%.
Take `COc1ccnc(C(=O)N[C@H]2CCC[C@H](OCC(C)C)[C@@H](OC)[C@H](C)OC2=O)c1OCOC(=O)C(C)C` [F254]: the pest or weed control at 121.5 g/ha in assay [1] (setting [4]) and in assay [1] (setting [5]) was under 0% in each case. Also, the pest or weed control at 100 ppm with Uncinula necator was 0 to 80%; in the assay with Erysiphe cichoracearum, under 0%; in the assay with Cercospora beticola, 0 to 80%; in assay [2], 0 to 80%; in assay [3] it was 80 to 100%. In addition, the pest or weed control at 25 ppm was 80 to 100% with Phakopsora pachyrhizi (setting [6]) and 0 to 80% in the assay with Phakopsora pachyrhizi (setting [7]).
Consider `COc1ccnc(C(=O)N[C@H]2CCC[C@H](Oc3ccccc3)[C@@H](OC)[C@H](C)OC2=O)c1OCOC(=O)C(C)C` [F255], for which the pest or weed control at 121.5 g/ha in assay [1] (setting [4]) and in assay [1] (setting [5]) was 0 to 80% each time. In addition, the pest or weed control at 100 ppm is 80 to 100% in the assay with Uncinula necator; under 0% with Erysiphe cichoracearum; 0 to 80% in the assay on Cercospora beticola; 0 to 80% in assay [2]; 80 to 100% in assay [3]. Besides, the pest or weed control at 25 ppm in the assay with Phakopsora pachyrhizi (setting [6]) fell in the range of 80 to 100%; with Phakopsora pachyrhizi (setting [7]), 0 to 80%.
